Results: US4973675A, “Hybrid nitrosoureidoanthracyclines having antitumor activity” (University of Tennessee Research Center, priority 1989, dated 1990)
Read-outs that look alike come from different tables or passages of the source.

How the values were obtained:
[1] = system: human CEM leukemic lymphocytes; assay: Growth inhibition of human CEM leukemic lymphocyte suspension cultures, 48 h continuous drug exposure (ID50); type: cell-based; conditions: Homo sapiens, Lymphocyte
Procedure: (§1) Culture and bioassay conditions were as described in Cancer Chemotherapy Pharmacology 20:277 (1987) "Comparative Effects of Adriamycin and DNA-nonbinding Analogues on DNA, RNA, and Protein Synthesis in Vitro", Israel et al., except that cell counts were determined by hemocytometer rather than by automated cell counting.

calf thymus DNA = assay: Interstrand cross-link formation in isolated calf thymus DNA, ethidium bromide fluorescence assay; type: biochemical; conditions: 10 mM, 4 hours at 50° C.
Procedure: To further assess the alkylation potential of AD 312, the ability of this agent to form interstrand cross-links in isolated calf thymus DNA was examined using an ethidium bromide fluorescence assay. […] In one set of experiments, DNA was exposed briefly to AD 312 (30 minutes at 50° C.) before being reisolated by precipitation with ethanol. […] Such continuing reaction reflects the presence in the DNA of long-lived precursors of crosslinks similar to what has been found for the classical antitumor chloroethylnitrosoureas. […] It appears, therefore, that AD 312 induces DNA interstrand crosslinks via an initial adduct at O^6 -guanine.

[2] = system: plasmid PC15 supercoiled DNA; assay: DNA unwinding assay (interference with DNA topoisomerase I-mediated unwinding; drug-DNA intercalation); type: biochemical; conditions: for interference with topoisomerase I-mediated conversion of supercoiled DNA / intercalation: 4 concentrations, 125-fold range
Source text: DNA unwinding assays were used to measure the ability of a test drug to interfere with DNA topoisomerase I-mediated unwinding of plasmid PC15 supercoiled DNA. DNA topoisomerase I controls the topology of double-stranded DNA and is itself not inhibited by DNA intercalating agents. Rather, intercalating agents cause distortion of the torsional angle between adjacent DNA strand components and thereby interfere with the ability of topoisomerase I to convert supercoiled DNA into relaxed forms. Accordingly, this assay is taken as the definitive test of drug-DNA intercalation.
Drugs were tested at 4 concentrations over a 125-fold concentration range. […] These compounds are 2-chloroethylurea derivatives of daunorubicin and adriamycin, respectively (i.e. not nitrosoureas, but chemical intermediates from which the nitrosoureas were derived).

[3] = Solubility in water or saline; type: physicochemical
Procedure: Accordingly, the compounds are formulated for administration by dissolving the compound in a pharmaceutically acceptable non-toxic carrier which contains a surfactant. The present inventors employ a formulation of 10% Cremaphor EL (a polyhydroxylated castor oil derivative) available from BASF Chemicals, 10% ethanol and 80% aqueous media (sterile water or saline solution). That quantity of the compound desired for establishing an effective dose is dissolved in a 1:1 mixture of Cremaphor EL and ethanol. Thereafter, sufficient aqueous medium is added with stirring to develop a final formulation containing 80% aqueous medium. This formulation is administered parenterally.

DNA topoisomerase II = assay: Drug-stimulated topoisomerase II-mediated DNA cleavage assay (end-labeled PMC41 DNA); type: biochemical; conditions: 625-fold concentration range
Source text: FIGS. 5A and 5B are a photographic reproduction of the results of drug-stimulated topoisomerase II-mediated DNA cleavage assays performed on various compounds, including compounds of the present invention.
DNA intercalation is a necessary but not a sufficient requirement for DNA topoisomerase II-mediated DNA cleavage. Accordingly, determination of drug-induced enzyme inhibition requires direct assay with isolated topoisomerase II. These assays involve determination of drug-enhanced topoisomerase II-mediated cleavage of PMC41 DNA appropriately end-labeled with [α-^32 P]dATP. As better seen in FIG. 5B, lane B, purified topoisomerase II, under the assay conditions, causes fragmentation of the DNA (background cleavage), as indicated by the radioautographic appearance of bands of cleaved DNA having differing mass values.

[4] = system: murine L1210 leukemia cells; assay: Clonogenic assay with cultured murine L1210 leukemia cells, 1 h drug exposure (LD90); type: cell-based; conditions: Mus musculus, L1210; 1 hr drug exposure; read-out: L1210 LD90 (dose killing 90% of clonogens)
Procedure: as §1
+Dose killing 90% of clonogens, 1hr. drug exposure.

[5] = CEM, 48 hr continuous drug exposure (Table 2), read-out: ID50 (the source's name)

| SMILES | IC50 [1, 5] [µM] | other results |
| --- | --- | --- |
| CNC(=O)N[C@H]1C[C@H](O[C@H]2C[C@](O)(C(C)=O)Cc3c(O)c4c(c(O)c32)C(=O)c2c(OC)cccc2C4=O)O[C@@H](C)[C@H]1O [AD 305] | 2.3 |  |
| CCNC(=O)N[C@H]1C[C@H](O[C@H]2C[C@](O)(C(C)=O)Cc3c(O)c4c(c(O)c32)C(=O)c2c(OC)cccc2C4=O)O[C@@H](C)[C@H]1O [AD 306] | > 1 |  |
| COc1cccc2c1C(=O)c1c(O)c3c(c(O)c1C2=O)C[C@@](O)(C(C)=O)C[C@@H]3O[C@H]1C[C@H](NC(=O)NCCCl)[C@H](O)[C@H](C)O1 [AD 307, 2-chloroethylureidodaunorubicin] | 0.3 | interstrand crosslink formation (calf thymus DNA): appeared to produce no such effect; interference with topoisomerase I-mediated conversion of supercoiled DNA / intercalation [2]: reasonably strong intercalators |
| CCCNC(=O)N[C@H]1C[C@H](O[C@H]2C[C@](O)(C(C)=O)Cc3c(O)c4c(c(O)c32)C(=O)c2c(OC)cccc2C4=O)O[C@@H](C)[C@H]1O [AD 308] | > 5 |  |
| COc1cccc2c1C(=O)c1c(O)c3c(c(O)c1C2=O)C[C@@](O)(C(C)=O)C[C@@H]3O[C@H]1C[C@H](NC(=O)Nc2ccccc2)[C@H](O)[C@H](C)O1 [AD 309] | > 1 |  |
| COc1cccc2c1C(=O)c1c(O)c3c(c(O)c1C2=O)C[C@@](O)(C(C)=O)C[C@@H]3O[C@H]1C[C@H](NC(=O)N(C)N=O)[C@H](O)[C@H](C)O1 [AD 310] | 1.4 |  |
| CCN(N=O)C(=O)N[C@H]1C[C@H](O[C@H]2C[C@](O)(C(C)=O)Cc3c(O)c4c(c(O)c32)C(=O)c2c(OC)cccc2C4=O)O[C@@H](C)[C@H]1O [AD 311] |  | IC50 ([1]; 48 h, read-out: ID50): 1.5 µM |
| CCCN(N=O)C(=O)N[C@H]1C[C@H](O[C@H]2C[C@](O)(C(C)=O)Cc3c(O)c4c(c(O)c32)C(=O)c2c(OC)cccc2C4=O)O[C@@H](C)[C@H]1O [AD 313] | > 1 |  |
| COc1cccc2c1C(=O)c1c(O)c3c(c(O)c1C2=O)C[C@@](O)(C(C)=O)C[C@@H]3O[C@H]1C[C@H](NC(=O)NC(C)C)[C@H](O)[C@H](C)O1 [AD 328] | > 1 |  |
| COc1ccc(NC(=O)N[C@H]2C[C@H](O[C@H]3C[C@](O)(C(C)=O)Cc4c(O)c5c(c(O)c43)C(=O)c3c(OC)cccc3C5=O)O[C@@H](C)[C@H]2O)cc1 [AD 330] | > 1 |  |
| COc1cccc2c1C(=O)c1c(O)c3c(c(O)c1C2=O)C[C@@](O)(C(C)=O)C[C@@H]3O[C@H]1C[C@H](NC(=O)Nc2ccc(F)cc2)[C@H](O)[C@H](C)O1 [AD 332] |  | IC50 ([1]; 48 h, read-out: ID50): > 1 µM |
| COc1cccc2c1C(=O)c1c(O)c3c(c(O)c1C2=O)C[C@@](O)(C(C)=O)C[C@@H]3O[C@H]1C[C@H](NC(=O)Nc2cccc(C(F)(F)F)c2)[C@H](O)[C@H](C)O1 [AD 334] | 0.83 |  |
| CCOC(=O)NC(=S)N[C@H]1C[C@H](O[C@H]2C[C@](O)(C(C)=O)Cc3c(O)c4c(c(O)c32)C(=O)c2c(OC)cccc2C4=O)O[C@@H](C)[C@H]1O [AD 336] | 0.6 |  |
| COc1cccc2c1C(=O)c1c(O)c3c(c(O)c1C2=O)C[C@@](O)(C(=O)CO)C[C@@H]3O[C@H]1C[C@H](NC(=O)N(CCCl)N=O)[C@H](O)[C@H](C)O1 [AD 337] |  | solubility ([3]; water or saline solution): essentially insoluble in water or saline solution; solubility ([3]; water, of the order of, read-out: solubility in water): < 25 µg/mL |
| CNC(=O)N[C@H]1C[C@H](O[C@H]2C[C@](O)(C(=O)CO)Cc3c(O)c4c(c(O)c32)C(=O)c2c(OC)cccc2C4=O)O[C@@H](C)[C@H]1O [AD 342] | 2 |  |
| COc1cccc2c1C(=O)c1c(O)c3c(c(O)c1C2=O)C[C@@](O)(C(=O)CO)C[C@@H]3O[C@H]1C[C@H](NC(=O)N(C)N=O)[C@H](O)[C@H](C)O1 [AD 343] |  | IC50 ([1]; 48 h, read-out: ID50): 0.48 µM |
| CCNC(=O)N[C@H]1C[C@H](O[C@H]2C[C@](O)(C(=O)CO)Cc3c(O)c4c(c(O)c32)C(=O)c2c(OC)cccc2C4=O)O[C@@H](C)[C@H]1O [AD 344] |  | IC50 ([1]; 48 h, read-out: ID50): 0.58 µM |
| CCN(N=O)C(=O)N[C@H]1C[C@H](O[C@H]2C[C@](O)(C(=O)CO)Cc3c(O)c4c(c(O)c32)C(=O)c2c(OC)cccc2C4=O)O[C@@H](C)[C@H]1O [AD 345] |  | IC50 ([1]; 48 h, read-out: ID50): 0.61 µM |
| COc1cccc2c1C(=O)c1c(O)c3c(c(O)c1C2=O)C[C@@](O)(C(=O)CO)C[C@@H]3O[C@H]1C[C@H](NC(=O)NCCCl)[C@H](O)[C@H](C)O1 [AD 346, 2-chloroethylureidoadriamycin] | 0.09 | enhancement of topoisomerase II-mediated DNA cleavage (DNA topoisomerase II): do not enhance topoisomerase II-mediated cleavage; interference with topoisomerase I-mediated conversion of supercoiled DNA / intercalation [2]: reasonably strong intercalators |
| CCCNC(=O)N[C@H]1C[C@H](O[C@H]2C[C@](O)(C(=O)CO)Cc3c(O)c4c(c(O)c32)C(=O)c2c(OC)cccc2C4=O)O[C@@H](C)[C@H]1O [AD 348] | 0.77 |  |
| CCCN(N=O)C(=O)N[C@H]1C[C@H](O[C@H]2C[C@](O)(C(=O)CO)Cc3c(O)c4c(c(O)c32)C(=O)c2c(OC)cccc2C4=O)O[C@@H](C)[C@H]1O [AD 349] | 0.43 |  |
| COc1cccc2c1C(=O)c1c(O)c3c(c(O)c1C2=O)C[C@@](O)(C(=O)CO)C[C@@H]3O[C@H]1C[C@H](NC(=O)NC(C)C)[C@H](O)[C@H](C)O1 [AD 350] | 0.72 |  |
| COc1cccc2c1C(=O)c1c(O)c3c(c(O)c1C2=O)C[C@@](O)(C(=O)CO)C[C@@H]3O[C@H]1C[C@H](NC(=O)Nc2ccccc2)[C@H](O)[C@H](C)O1 [AD 352] | 0.4 |  |
| COc1ccc(NC(=O)N[C@H]2C[C@H](O[C@H]3C[C@](O)(C(=O)CO)Cc4c(O)c5c(c(O)c43)C(=O)c3c(OC)cccc3C5=O)O[C@@H](C)[C@H]2O)cc1 [AD 354] | 0.71 |  |
| COc1cccc2c1C(=O)c1c(O)c3c(c(O)c1C2=O)C[C@@](O)(C(=O)CO)C[C@@H]3O[C@H]1C[C@H](NC(=O)Nc2ccc(F)cc2)[C@H](O)[C@H](C)O1 [AD 356] | 1.14 |  |
| CCOC(=O)NC(=S)N[C@H]1C[C@H](O[C@H]2C[C@](O)(C(=O)CO)Cc3c(O)c4c(c(O)c32)C(=O)c2c(OC)cccc2C4=O)O[C@@H](C)[C@H]1O [AD 360] | 0.36 |  |
| COc1cccc2c1C(=O)c1c(O)c3c(c(O)c1C2=O)C[C@@](O)(C(C)=O)C[C@@H]3O[C@H]1C[C@@H]2NC(=O)O[C@@H]2[C@H](C)O1 [AD 362] | 0.88 |  |
| COc1cccc2c1C(=O)c1c(O)c3c(c(O)c1C2=O)C[C@@](O)(C(=O)CO)C[C@@H]3O[C@H]1C[C@@H]2NC(=O)O[C@@H]2[C@H](C)O1 [AD 363] | 0.71 |  |
| COc1cccc2c1C(=O)c1c(O)c3c(c(O)c1C2=O)C[C@@](O)(C(=O)CO)C[C@@H]3O[C@H]1C[C@H](NC(=O)NCCCl)[C@@H](O)[C@H](C)O1 [AD 391, 2-chloroethylureidoepirubicin] | 0.08 | enhancement of topoisomerase II-mediated DNA cleavage (DNA topoisomerase II): do not enhance topoisomerase II-mediated cleavage; interference with topoisomerase I-mediated conversion of supercoiled DNA / intercalation [2]: strong intercalators |
| COc1cccc2c1C(=O)c1c(O)c3c(c(O)c1C2=O)C[C@@](O)(C(=O)CO)C[C@@H]3O[C@H]1C[C@H](N)[C@@H](O)[C@H](C)O1 [Epirubicin, epirubicin, reference compound] |  | IC90 [4]: 0.43 µM; IC50 ([1]; suspension culture, 48 hr continuous drug exposure (Table 3), read-out: CEM, ID50 (50% growth-inhibitory concentration)): 0.03 µM; relative strength of drug-DNA intercalation (arbitrary scale) ([2]; 0 = no intercalation, 9 = very strong intercalation): 7 |
